Data reported in patent US20250195521A1 (Revolution Medicines, Inc., priority 2020, published 2025).

Key:
Type in all cases: biochemical
[1] = biological target: NRAS G12C (Homo sapiens (Human), UniProt P01111+P62937, G12C); assay: Ras-Raf disruption/FRET/MOA assay, NRAS G12C; conditions: read-out: NRAS G12C FRET data IC50
Text: (§1) Disruption of B-Raf Ras-Binding Domain (BRAF^RBD) Interaction with K-Ras by Compounds of the Invention (Also Called a FRET Assay or an MOA Assay)
(§2) Note—The following protocol describes a procedure for monitoring disruption of K-Ras G12C (GMP-PNP) binding to BRAF^RBD by a compound of the invention. This protocol may also be executed substituting other Ras proteins or nucleotides, such as K-Ras G12D and K-Ras G13D.
(§3) The purpose of this biochemical assay was to measure the ability of test compounds to facilitate ternary complex formation between a nucleotide-loaded K-Ras isoform and Cyclophilin A; the resulting ternary complex disrupts binding to a BRAF^RBD construct, inhibiting K-Ras signaling through a RAF effector. Data is reported as IC50 values.
(§4) In assay buffer containing 25 mM HEPES pH 7.3, 0.002% Tween20, 0.1% BSA, 100 mM NaCl and 5 mM MgCl2, tagless Cyclophilin A, His6-K-Ras-GMPPNP, and GST-BRAF^RBD were combined in a 384-well assay plate at final concentrations of 25 μM, 12.5 nM, and 50 nM, respectively. Compound was present in plate wells as a 10-point 3-fold dilution series starting at a final concentration of 30 μM. After incubation at 25° C. for 3 hours, a mixture of anti-His Eu—W1024 and anti-GST allophycocyanin was then added to assay sample wells at final concentrations of 10 nM and 50 nM, respectively, and the reaction incubated for an additional 1.5 hours. […] Compounds that facilitate disruption of a K-Ras: RAF complex were identified as those eliciting a decrease in the TR-FRET ratio relative to DMSO control wells.

[2] = biological target: KRAS WT (Homo sapiens (Human), UniProt P01116+P62937); assay: Ras-Raf disruption/FRET/MOA assay, KRAS WT; conditions: read-out: KRAS WT FRET IC50
Text: as §1, §2, §3, §4

[3] = biological target: KRAS G12D (Homo sapiens (Human), UniProt P01116+P62937, G12D); assay: Ras-Raf disruption/FRET/MOA assay, KRAS G12D; conditions: read-out: KRAS G12D FRET IC50
Text: as §1, §2, §3, §4

[4] = biological target: KRAS G12C (Homo sapiens (Human), UniProt P01116+P62937, G12C); assay: Ras-Raf disruption/FRET/MOA assay, KRAS G12C; conditions: read-out: KRAS G12C FRET data IC50
Text: as §1, §2, §3, §4

[5] = biological target: KRAS G12S (Homo sapiens (Human), UniProt P01116+P62937, G12S); assay: Ras-Raf disruption/FRET/MOA assay, KRAS G12S; conditions: read-out: KRAS G12S FRET IC50
Text: as §1, §2, §3, §4

[6] = biological target: KRAS G13D (Homo sapiens (Human), UniProt P01116+P62937, G13D); assay: Ras-Raf disruption/FRET/MOA assay, KRAS G13D; conditions: read-out: KRAS G13D FRET IC50
Text: as §1, §2, §3, §4

[7] = biological target: KRAS G12V (Homo sapiens (Human), UniProt P01116+P62937, G12V); assay: Ras-Raf disruption/FRET/MOA assay, KRAS G12V; conditions: read-out: KRAS G12V FRET IC50
Text: as §1, §2, §3, §4

[8] = biological target: KRAS G13C (Homo sapiens (Human), UniProt P01116+P62937, G13C); assay: Ras-Raf disruption/FRET/MOA assay, KRAS G13C; conditions: read-out: KRAS G13C FRET IC50
Text: as §1, §2, §3, §4

KRAS G12S, sequence (P01116 other isoform, or with tags, fused parts or gaps G12S): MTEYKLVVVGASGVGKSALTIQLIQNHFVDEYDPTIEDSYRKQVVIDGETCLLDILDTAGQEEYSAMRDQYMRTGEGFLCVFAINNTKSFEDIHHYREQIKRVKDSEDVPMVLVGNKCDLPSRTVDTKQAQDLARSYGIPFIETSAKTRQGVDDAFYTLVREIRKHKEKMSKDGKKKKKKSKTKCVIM
KRAS G12S, sequence (P62937 whole entry): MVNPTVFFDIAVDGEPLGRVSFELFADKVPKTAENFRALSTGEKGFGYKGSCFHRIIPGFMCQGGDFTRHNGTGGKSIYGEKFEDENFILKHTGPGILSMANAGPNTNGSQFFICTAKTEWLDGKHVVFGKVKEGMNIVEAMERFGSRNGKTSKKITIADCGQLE
KRAS G12V, sequence (P01116 other isoform, or with tags, fused parts or gaps G12V): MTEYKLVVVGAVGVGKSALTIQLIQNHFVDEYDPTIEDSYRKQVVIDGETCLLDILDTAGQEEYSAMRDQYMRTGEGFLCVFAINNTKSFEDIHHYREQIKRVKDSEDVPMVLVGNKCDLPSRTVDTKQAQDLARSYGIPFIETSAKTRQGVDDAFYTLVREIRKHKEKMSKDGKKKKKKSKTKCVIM
KRAS G12V, sequence (P62937 whole entry): as the sequence (P62937 whole entry) above
NRAS G12C, sequence (P01111 whole entry G12C, the tested form may be a part): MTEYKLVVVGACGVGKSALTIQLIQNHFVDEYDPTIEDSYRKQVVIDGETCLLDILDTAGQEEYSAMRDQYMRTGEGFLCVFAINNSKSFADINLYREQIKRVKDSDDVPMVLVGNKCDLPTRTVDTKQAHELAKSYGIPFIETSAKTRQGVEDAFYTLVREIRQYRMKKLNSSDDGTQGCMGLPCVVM
NRAS G12C, sequence (P62937 whole entry, the tested form may be a part): as the sequence (P62937 whole entry) above
KRAS G13D, sequence (P01116 other isoform, or with tags, fused parts or gaps G13D): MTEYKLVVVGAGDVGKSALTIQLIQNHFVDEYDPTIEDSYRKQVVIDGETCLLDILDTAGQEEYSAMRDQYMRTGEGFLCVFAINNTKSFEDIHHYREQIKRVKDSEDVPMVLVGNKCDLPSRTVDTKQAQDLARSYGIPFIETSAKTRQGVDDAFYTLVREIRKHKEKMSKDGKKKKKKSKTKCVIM
KRAS G13D, sequence (P62937 whole entry): as the sequence (P62937 whole entry) above
KRAS G13C, sequence (P01116 other isoform, or with tags, fused parts or gaps G13C): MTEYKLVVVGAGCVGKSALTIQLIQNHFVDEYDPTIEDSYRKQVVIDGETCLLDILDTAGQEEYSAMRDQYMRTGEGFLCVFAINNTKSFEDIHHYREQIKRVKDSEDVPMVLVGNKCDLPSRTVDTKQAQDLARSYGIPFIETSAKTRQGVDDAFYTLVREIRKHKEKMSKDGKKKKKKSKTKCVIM
KRAS G13C, sequence (P62937 whole entry): as the sequence (P62937 whole entry) above
KRAS G12D, sequence (P01116 other isoform, or with tags, fused parts or gaps G12D): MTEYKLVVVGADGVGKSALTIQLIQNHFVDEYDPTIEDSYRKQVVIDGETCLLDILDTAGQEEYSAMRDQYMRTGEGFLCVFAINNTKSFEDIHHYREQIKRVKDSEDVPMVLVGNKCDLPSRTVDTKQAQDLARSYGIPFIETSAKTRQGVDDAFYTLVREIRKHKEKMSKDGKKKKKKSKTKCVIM
KRAS G12D, sequence (P62937 whole entry): as the sequence (P62937 whole entry) above
KRAS G12C, sequence (P01116-2 other isoform, or with tags, fused parts or gaps G12C): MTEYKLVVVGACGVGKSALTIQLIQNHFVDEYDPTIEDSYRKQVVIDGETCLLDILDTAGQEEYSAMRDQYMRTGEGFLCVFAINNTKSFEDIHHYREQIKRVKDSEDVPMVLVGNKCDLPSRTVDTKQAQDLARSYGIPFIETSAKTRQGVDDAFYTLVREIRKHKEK
KRAS G12C, sequence (P62937 whole entry): as the sequence (P62937 whole entry) above
KRAS WT, sequence (P01116 other isoform, or with tags, fused parts or gaps): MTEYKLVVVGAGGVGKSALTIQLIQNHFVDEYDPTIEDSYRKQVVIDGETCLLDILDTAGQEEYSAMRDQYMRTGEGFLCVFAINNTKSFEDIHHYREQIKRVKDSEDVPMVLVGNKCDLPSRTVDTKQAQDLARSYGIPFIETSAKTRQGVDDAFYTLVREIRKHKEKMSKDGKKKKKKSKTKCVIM
KRAS WT, sequence (P62937 whole entry): as the sequence (P62937 whole entry) above

Compound | IC50 [1] [µM] | IC50 [2] [µM] | IC50 [3] [µM] | IC50 [4] [µM] | IC50 [5] [µM] | IC50 [6] [µM] | IC50 [7] [µM] | IC50 [8] [µM]
CCn1c(-c2cnccc2COC)c2c3cc(ccc31)-c1cc(O)cc(c1)C[C@H](NC(=O)[C@H](C(C)C)N(C)C(=O)C1CN(C(=O)[C@H]3CN3)C1)C(=O)N1CCC[C@H](N1)C(=O)OCC(C)(C)C2 [Example 5] | < 0.01 | 0.1 to 1 | 1 to 10 | 0.01 to 0.1 | 0.1 to 1 | 0.1 to 1 | 0.1 to 1 | 0.1 to 1
CCn1c(-c2cnccc2COC)c2c3cc(ccc31)-c1cc(O)cc(c1)C[C@H](NC(=O)[C@H](C(C)C)N(C)C(=O)C1CN(C(=O)[C@@H]3CN3)C1)C(=O)N1CCC[C@H](N1)C(=O)OCC(C)(C)C2 [Example 6] | 0.01 to 0.1 | 0.1 to 1 | 1 to 10 | 0.01 to 0.1 | 0.1 to 1 | 1 to 10 | 0.1 to 1 | 0.1 to 1
CCn1c(-c2cnccc2COC)c2c3cc(ccc31)-c1cc(O)cc(c1)C[C@H](NC(=O)[C@@H](CCNC(=O)NCCCl)C(C)C)C(=O)N1CCC[C@H](N1)C(=O)OCC(C)(C)C2 [Example 26] | 1 to 10 | 1 to 10 | > 10 | 1 to 10 | > 10 | 1 to 10 | 1 to 10 | > 10
CCn1c(-c2cccnc2COC)c2c3cc(ccc31)-c1cc(O)cc(c1)C[C@H](NC(=O)[C@H](C(C)C)N(C)C(=O)CCNC1=NCCO1)C(=O)N1CCC[C@H](N1)C(=O)OCC(C)(C)C2 [Example 27] | > 10 | 1 to 10 | > 10 | 1 to 10 | > 10 | 1 to 10 | 1 to 10 | 1 to 10
CCn1c(-c2cccnc2COC)c2c3cc(ccc31)-c1cc(O)cc(c1)C[C@H](NC(=O)[C@H](C(C)C)N(C)C(=O)CNC1=NCCO1)C(=O)N1CCC[C@H](N1)C(=O)OCC(C)(C)C2 [Example 28] | 1 to 10 | > 10 | > 10 | 1 to 10 | > 10 | 1 to 10 | 1 to 10 | 1 to 10
CCn1c(-c2cnccc2COC)c2c3cc(ccc31)-c1cc(O)cc(c1)C[C@H](NC(=O)[C@H](C(C)C)N(C)C(=O)[C@H]1CCN(C(=O)[C@@H]3CO3)C1)C(=O)N1CCC[C@H](N1)C(=O)OCC(C)(C)C2 [Example 31, (3S)—N-((2S)-1-(((6^3S,4S)-1^1-ethyl-25-hydroxy-1^2-(4-(methoxymethyl)pyridin-3-yl)-10,10-dimethyl-5,7-dioxo-6^1,6^2,6^3,6^4,6^5,6^6-hexahydro-1^1H-8-oxa-1 (5,3)-indola-6 (1,3)-pyridazina-2 (1,3)-benzenacycloundecaphane-4-yl)amino)-3-methyl-1-oxobutan-2-yl)-N-methyl-1-((S)-oxirane-2-carbonyl) pyrrolidine-3-carboxamide] | 0.1 to 1 | 1 to 10 | 1 to 10 | 0.01 to 0.1 | 0.1 to 1 | 1 to 10 | 0.1 to 1 | 0.1 to 1
CCn1c(-c2cnccc2COC)c2c3cc(ccc31)-c1cc(O)cc(c1)C[C@H](NC(=O)[C@H](C(C)C)N(C)C(=O)CCN(C)C(=O)[C@@H]1CN1)C(=O)N1CCC[C@H](N1)C(=O)OCC(C)(C)C2 [Example 40] | 0.1 to 1 | 0.1 to 1 | 0.1 to 1 | 0.1 to 1 | 0.1 to 1 | 0.1 to 1 | 0.1 to 1 | 0.1 to 1
CCn1c(-c2cnccc2COC)c2c3cc(ccc31)-c1cc(O)cc(c1)C[C@H](NC(=O)[C@H](C(C)C)N(C)C(=O)N1CCCN(C(=O)[C@H]3CN3)CC1)C(=O)N1CCC[C@H](N1)C(=O)OCC(C)(C)C2 [Example 44] | 0.01 to 0.1 | 0.01 to 0.1 | 0.1 to 1 | 0.01 to 0.1 | 0.1 to 1 | 0.1 to 1 | 0.01 to 0.1 | 0.01 to 0.1
CCn1c(-c2cnccc2COC)c2c3cc(ccc31)-c1cc(O)cc(c1)C[C@H](NC(=O)[C@H](C(C)C)N(C)C(=O)N1CCCN(C(=O)[C@@H]3CN3)CC1)C(=O)N1CCC[C@H](N1)C(=O)OCC(C)(C)C2 [Example 45] | 0.01 to 0.1 | 0.01 to 0.1 | 0.1 to 1 | 0.01 to 0.1 | 0.1 to 1 | 0.1 to 1 | 0.1 to 1 | 0.01 to 0.1
CCn1c(-c2cnccc2COC)c2c3cc(ccc31)-c1cc(O)cc(c1)C[C@H](NC(=O)[C@H](C(C)C)N(C)C(=O)c1ccc(NC(=O)[C@@H]3CN3)cn1)C(=O)N1CCC[C@H](N1)C(=O)OCC(C)(C)C2 [Example 46] | 0.1 to 1 | 1 to 10 | 1 to 10 | 0.1 to 1 | 0.1 to 1 | 1 to 10 | 1 to 10 | 0.1 to 1
CCn1c(-c2cnccc2COC)c2c3cc(ccc31)-c1cc(O)cc(c1)C[C@H](NC(=O)[C@@H](CN(C)C(=O)[C@@H]1CN1)C(C)C)C(=O)N1CCC[C@H](N1)C(=O)OCC(C)(C)C2 [Example 60] | > 10 | > 10 | > 10 | 1 to 10 | > 10 | > 10 | 1 to 10 | > 10
CCn1c(-c2cnccc2COC)c2c3cc(ccc31)-c1cccc(c1)C[C@H](NC(=O)[C@H](C(C)C)N(C)C(=O)CCN=C=Nc1ccccc1COC)C(=O)N1CCC[C@H](N1)C(=O)OCC(C)(C)C2 [Example 63] | 1 to 10 | 1 to 10 | 1 to 10 | 1 to 10 | 1 to 10 | > 10 | 1 to 10 | 1 to 10
CCn1c(-c2cnccc2COC)c2c3cc(ccc31)-c1cccc(c1)C[C@H](NC(=O)[C@H](C(C)C)N(C)C(=O)CCN=C=Nc1ccc(N(C)C)cc1)C(=O)N1CCC[C@H](N1)C(=O)OCC(C)(C)C2 [Example 66] | 0.1 to 1 | 1 to 10 | 1 to 10 | 0.1 to 1 | 1 to 10 | 1 to 10 | 1 to 10 | 0.1 to 1
CCn1c(-c2cnccc2COC)c2c3cc(ccc31)-c1cccc(c1)C[C@H](NC(=O)[C@H](C(C)C)N(C)C(=O)CCN=C=Nc1ccc(N3CCOCC3)cc1)C(=O)N1CCC[C@H](N1)C(=O)OCC(C)(C)C2 [Example 67] | 0.1 to 1 | 1 to 10 | 1 to 10 | 0.1 to 1 | 1 to 10 | 1 to 10 | 1 to 10 | 1 to 10
